According to paper PMC10684765, “Inhibition of rat locus coeruleus neurons by prostaglandin E2 EP3 receptors: pharmacological characterization ex vivo” (Frontiers in Pharmacology, 2023):
Read-outs that look alike come from different tables or passages of the source.

What was measured:
EP3 receptor [1] = molecular target: T1, EP3 receptor (Rattus norvegicus, UniProt P34980); assay: inhibition of LC neuron firing, single-unit extracellular recording; shifted by EP3 antagonist L-798, […]
T1 construct: gene Ptger3; native receptor in locus coeruleus neurons, brain slices
T1 sequence (P34980 1-365): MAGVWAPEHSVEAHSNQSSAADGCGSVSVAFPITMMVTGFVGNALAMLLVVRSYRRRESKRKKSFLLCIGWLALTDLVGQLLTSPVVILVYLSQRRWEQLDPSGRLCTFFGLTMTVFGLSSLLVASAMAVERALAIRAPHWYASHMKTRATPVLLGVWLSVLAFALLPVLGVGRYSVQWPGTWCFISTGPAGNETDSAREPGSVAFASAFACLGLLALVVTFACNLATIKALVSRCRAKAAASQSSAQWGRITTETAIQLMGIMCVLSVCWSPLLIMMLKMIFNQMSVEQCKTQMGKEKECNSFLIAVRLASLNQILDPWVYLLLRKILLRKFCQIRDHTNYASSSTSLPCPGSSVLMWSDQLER

EP3 receptor [2] = molecular target: T1, EP3 receptor; assay: antagonism of sulprostone concentration-effect curves, single-unit recording in rat LC slices (Schild-derived fit)

Structure (SMILES)	EC50 (EP3 receptor [1]; read-out: (EC50)) [nM]	also measured
CCCCC(C)(O)C/C=C/[C@H]1[C@H](O)CC(=O)[C@@H]1CCCCCCC(=O)O (relative stereo) [misoprostol free acid]	50.7	–
COc1ccc(Br)cc1S(=O)(=O)NC(=O)/C=C/c1ccccc1Cc1ccc2ccccc2c1 [L-798,106]	–	Kb (EP3 receptor [2]): 5.77 ± 0.10 pKB
CCCCC[C@H](O)/C=C/[C@H]1[C@H](O)CC(=O)[C@@H]1C/C=C\CCCC(=O)O [prostaglandin E2]	–	EC50 (EP3 receptor [1]): 110 nM
CS(=O)(=O)NC(=O)CCC/C=C\C[C@H]1C(=O)C[C@@H](O)[C@@H]1/C=C/[C@@H](O)COc1ccccc1 [sulprostone]	14.8	–
